Values quoted from earlier work as cited in patent US20140161813A1, “METHODS FOR THE DIAGNOSIS, TREATMENT AND MONITORING OF CANCER” (priority 2012, published 2014).

Key:
[1] = test system: spontaneous tumors in dogs (thyroid carcinoma, malignant peripheral nerve sheath tumor, anal gland adenocarcinoma, spinal meningioma)
[2] = test system: human tumor 60 cell line screen; conditions: colon, ovarian and breast carcinomas and central nervous system tumors

Substance: nitrosylcobalamin [NO-Cbl]
- systemic or local toxicity ([1]; case study in dogs with spontaneous tumors): no evidence of systemic or local toxicity
- dogs in which the tumor was completely eliminated ([1]; extended follow-up, daily NO-Cbl treatment ranging in duration from 6 to 15 months): 3 of 4
- decrease in tumor size ([1]; remaining 1 of 4 dogs, daily NO-Cbl treatment over the course of 6 months): 77%
- antigrowth effects, tumor types most responsive [2]: colon, ovarian and breast carcinomas as well as central nervous system tumors were most responsive
